According to ChEMBL document CHEMBL4673280, “Discovery and SAR studies of 2-alkyl-3-phenyl-2,4,5,6,7,8-hexahydropyrazolo[3,4-d]azepines as 5-HT inhibitors leading to the identification of a clinical candidate” (Bioorg Med Chem Lett, 2021):

Assays:
[1] = molecular target: 5-hydroxytryptamine receptor 7 (Rattus norvegicus, UniProt P32305); experiment: Displacement of [3H]-CT from rat 5-HT7 receptor expressed in HEK293 cells by competitive radioligand binding assay; format: cell-based
[2] = molecular target: 5-hydroxytryptamine receptor 2A (Homo sapiens, UniProt P28223); experiment: Displacement of [3H]-ketanserin from human 5-HT2A receptor by competitive radioligand binding assay
Sequence of 5-hydroxytryptamine receptor 2A (P28223 whole entry): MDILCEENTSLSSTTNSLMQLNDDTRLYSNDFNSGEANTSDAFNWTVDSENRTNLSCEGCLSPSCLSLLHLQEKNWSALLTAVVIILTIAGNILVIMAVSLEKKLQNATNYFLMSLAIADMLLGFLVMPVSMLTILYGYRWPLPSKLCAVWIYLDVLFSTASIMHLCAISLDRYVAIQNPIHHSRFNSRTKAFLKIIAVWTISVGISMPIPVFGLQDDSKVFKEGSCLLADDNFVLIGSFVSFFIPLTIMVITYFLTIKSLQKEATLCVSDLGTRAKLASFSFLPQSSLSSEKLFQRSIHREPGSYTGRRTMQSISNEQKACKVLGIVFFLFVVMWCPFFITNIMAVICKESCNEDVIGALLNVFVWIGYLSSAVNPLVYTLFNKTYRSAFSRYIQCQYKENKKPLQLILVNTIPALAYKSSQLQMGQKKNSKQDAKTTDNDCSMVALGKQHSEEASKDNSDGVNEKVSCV

[3] = molecular target: 5-hydroxytryptamine receptor 2B (Homo sapiens, UniProt P41595); experiment: Displacement of [3H]-ketanserin from human 5-HT2B receptor by competitive radioligand binding assay
Sequence of 5-hydroxytryptamine receptor 2B (P41595 whole entry): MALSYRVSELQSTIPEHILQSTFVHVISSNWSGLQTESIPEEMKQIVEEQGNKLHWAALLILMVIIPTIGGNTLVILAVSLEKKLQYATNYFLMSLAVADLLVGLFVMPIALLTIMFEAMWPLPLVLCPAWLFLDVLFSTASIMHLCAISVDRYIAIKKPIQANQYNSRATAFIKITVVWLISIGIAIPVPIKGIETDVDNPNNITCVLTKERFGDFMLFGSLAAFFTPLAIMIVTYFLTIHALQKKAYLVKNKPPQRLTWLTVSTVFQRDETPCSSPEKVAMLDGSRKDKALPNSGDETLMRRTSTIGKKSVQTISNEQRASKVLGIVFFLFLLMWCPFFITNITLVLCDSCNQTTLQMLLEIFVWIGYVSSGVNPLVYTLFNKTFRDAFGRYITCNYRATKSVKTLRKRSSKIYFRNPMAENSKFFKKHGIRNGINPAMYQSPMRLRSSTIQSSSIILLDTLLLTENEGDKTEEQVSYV

[4] = molecular target: T1, 5-hydroxytryptamine receptor 2C (Homo sapiens, UniProt P28335); experiment: Displacement of [3H]-ketanserin from human 5-HT2C receptor by competitive radioligand binding assay
T1 sequence (P28335 whole entry): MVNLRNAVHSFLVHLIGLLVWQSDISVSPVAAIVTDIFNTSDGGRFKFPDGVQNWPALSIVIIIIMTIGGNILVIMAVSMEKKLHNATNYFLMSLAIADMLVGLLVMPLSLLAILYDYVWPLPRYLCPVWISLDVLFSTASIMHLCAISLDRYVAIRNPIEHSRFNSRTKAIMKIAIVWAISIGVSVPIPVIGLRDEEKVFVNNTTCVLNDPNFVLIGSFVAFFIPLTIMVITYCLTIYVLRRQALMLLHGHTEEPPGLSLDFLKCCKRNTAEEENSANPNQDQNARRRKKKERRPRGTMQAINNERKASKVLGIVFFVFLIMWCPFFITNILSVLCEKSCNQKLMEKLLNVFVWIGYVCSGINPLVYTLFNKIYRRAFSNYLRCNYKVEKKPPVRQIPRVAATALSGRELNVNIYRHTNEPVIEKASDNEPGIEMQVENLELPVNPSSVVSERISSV

[5] = molecular target: T2, Adrenergic receptor alpha-1 (Rattus norvegicus, UniProt P15823+P23944+P43140); experiment: Displacement of […] from alpha1 adrenergic receptor in rat cortex membrane incubated for 60 mins by competitive radioligand binding assay; format: cell membranes
T2 sequence (P15823 whole entry): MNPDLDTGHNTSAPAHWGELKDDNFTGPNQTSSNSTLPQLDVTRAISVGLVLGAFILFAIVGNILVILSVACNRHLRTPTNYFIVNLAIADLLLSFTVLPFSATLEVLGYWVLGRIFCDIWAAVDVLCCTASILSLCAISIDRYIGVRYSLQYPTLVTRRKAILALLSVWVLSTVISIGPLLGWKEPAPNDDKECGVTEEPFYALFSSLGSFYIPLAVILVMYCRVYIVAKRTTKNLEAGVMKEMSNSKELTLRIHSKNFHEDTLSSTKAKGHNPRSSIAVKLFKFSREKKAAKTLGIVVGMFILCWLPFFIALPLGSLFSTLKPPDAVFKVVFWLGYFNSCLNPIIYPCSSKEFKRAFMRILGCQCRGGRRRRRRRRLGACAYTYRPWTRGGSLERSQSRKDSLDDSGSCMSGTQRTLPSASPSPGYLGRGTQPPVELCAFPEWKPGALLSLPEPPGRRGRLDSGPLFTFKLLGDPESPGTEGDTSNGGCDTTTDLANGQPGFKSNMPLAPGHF
T2 sequence (P23944 whole entry): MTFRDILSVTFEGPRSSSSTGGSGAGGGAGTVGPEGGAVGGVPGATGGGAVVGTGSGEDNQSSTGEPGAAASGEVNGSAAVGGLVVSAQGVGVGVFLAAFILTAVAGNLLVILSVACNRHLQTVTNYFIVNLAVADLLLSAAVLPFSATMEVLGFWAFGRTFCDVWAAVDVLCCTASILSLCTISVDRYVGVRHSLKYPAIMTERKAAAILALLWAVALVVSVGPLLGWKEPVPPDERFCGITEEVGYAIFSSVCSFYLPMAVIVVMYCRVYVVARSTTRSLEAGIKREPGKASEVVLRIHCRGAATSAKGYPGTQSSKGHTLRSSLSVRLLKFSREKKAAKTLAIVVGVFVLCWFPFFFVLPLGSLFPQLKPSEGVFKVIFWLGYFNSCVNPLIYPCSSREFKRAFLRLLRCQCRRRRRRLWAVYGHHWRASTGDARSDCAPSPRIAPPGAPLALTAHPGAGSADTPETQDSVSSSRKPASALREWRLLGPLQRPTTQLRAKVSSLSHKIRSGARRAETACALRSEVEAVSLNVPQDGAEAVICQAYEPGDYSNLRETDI
T2 sequence (P43140 whole entry): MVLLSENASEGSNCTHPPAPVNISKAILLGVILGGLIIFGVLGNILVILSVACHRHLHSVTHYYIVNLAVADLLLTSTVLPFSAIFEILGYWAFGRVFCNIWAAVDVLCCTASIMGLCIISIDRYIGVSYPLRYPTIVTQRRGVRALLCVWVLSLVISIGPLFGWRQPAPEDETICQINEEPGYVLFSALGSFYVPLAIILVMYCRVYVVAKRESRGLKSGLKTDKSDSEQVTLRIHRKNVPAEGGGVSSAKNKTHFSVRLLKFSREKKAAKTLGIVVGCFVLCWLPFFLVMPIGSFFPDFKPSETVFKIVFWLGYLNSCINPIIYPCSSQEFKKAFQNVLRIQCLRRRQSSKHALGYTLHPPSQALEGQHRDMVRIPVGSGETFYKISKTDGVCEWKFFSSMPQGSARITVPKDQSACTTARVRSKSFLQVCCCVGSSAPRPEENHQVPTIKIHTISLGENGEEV

Sequence of 5-hydroxytryptamine receptor 7 (P32305 whole entry): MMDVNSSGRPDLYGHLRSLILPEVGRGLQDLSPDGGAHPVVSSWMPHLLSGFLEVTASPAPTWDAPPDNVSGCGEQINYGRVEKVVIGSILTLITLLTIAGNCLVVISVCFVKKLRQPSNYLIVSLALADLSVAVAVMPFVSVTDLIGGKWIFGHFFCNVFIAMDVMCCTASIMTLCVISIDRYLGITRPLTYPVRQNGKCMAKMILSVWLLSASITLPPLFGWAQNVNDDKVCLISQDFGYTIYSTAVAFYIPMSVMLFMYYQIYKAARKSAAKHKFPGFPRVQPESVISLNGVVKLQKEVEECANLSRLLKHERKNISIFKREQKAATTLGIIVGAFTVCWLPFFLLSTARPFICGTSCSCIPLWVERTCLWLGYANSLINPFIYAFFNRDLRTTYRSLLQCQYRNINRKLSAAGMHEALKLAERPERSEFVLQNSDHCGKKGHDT

Ki [1] | Ki [2] | Ki [3] | Ki [4] | Ki [5] | SMILES
4000 nM | 39 nM | 31 nM | 0.91 µM | – | CC(C)n1nc2c(c1-c1ccc(Cl)c(Cl)c1)CCNCC2
150 nM | 600 nM | 15 nM | 9 µM | 10 µM | c1ccc(-c2c3c(nn2-c2ccccc2)CCNCC3)cc1
